Reference: the OPERA property sets (Mansouri et al. 2018)

conditions: not given

SMILES | boiling point [°C] | log10 vapour pressure (mmHg) | melting point [°C] | ready biodegradability | log10 Henry constant (atm·m³/mol) | log10 biodegradation half-life (days) | log10 Koa | log10 Koc (L/kg)
CC1CN1 (stereo not drawn) | 67 | 2.15 | -65 | – | – | – | – | –
OCC(F)(F)C(F)(F)C(F)(F)C(F)(F)C(F)(F)C(F)(F)C(F)(F)C(F)F | – | – | 56 | – | – | – | – | –
CC(C)(C)c1cc([N+](=O)[O-])cc([N+](=O)[O-])c1O | – | – | 126 | – | – | – | – | –
O=S(=O)(c1ccc(Cl)cc1)c1ccc(Cl)cc1 | – | – | 148 | not readily biodegradable | – | – | – | –
NS(=O)(=O)c1ccc(SCCO)cc1 | – | – | 112 | – | – | – | – | –
c1ccc2c(c1)Cc1c-2ccc2ccccc12 | 405 | -6.61 | 190 | – | -4.58 | 2.15 | – | –
CC(C)=C1OC(=O)N(c2cc(OC3CCCC3)c(Cl)cc2F)C1=O | – | – | 104 | – | – | – | – | –
CCc1cc2cc(OC)c(OC)cc2c(Cc2ccccc2)n1 | – | – | 78.5 | – | – | – | – | –
CCC(C)C#N (stereo not drawn) | 125 | – | – | – | – | – | – | –
CCSCCSCC | 217 | – | 180 | – | – | – | – | –
C=C1C(O)CC2(C(C)C)CC12 (stereo not drawn) | 208 | – | – | – | – | – | – | –
Cc1cccc(C)c1Br | 204 | – | – | – | – | – | – | –
CC(=O)OC/C=C(\C)CCC=C(C)C | 238 | -1.48 | – | – | – | – | – | –
Cc1ccc(O)c(C(C)C)c1 | 228 | – | 36.5 | – | – | – | – | –
CCOC(=O)C1(C(=O)OCC)CCC1 | 224 | – | – | – | – | – | – | –
CCCOCCC | 90 | 1.8 | -122 | – | -2.66 | – | 2.97 | –
CCCCOCC(C)C | 151 | – | – | – | – | – | – | –
c1ccn2cccc2c1 | 205 | – | 75 | – | – | – | – | –
c1ccc(P(c2ccccc2)c2ccccc2)cc1 | – | – | 80 | – | – | – | – | –
CCCOc1ccc([N+](=O)[O-])cc1N | – | – | 49 | – | – | – | – | –
C=C(C)C(=O)OC1CCCCC1 | – | – | – | readily biodegradable | – | – | – | –
Cc1cc2nc3c(=O)[nH]c(=O)nc-3n(C)c2cc1C | – | – | 320 | – | – | – | – | –
NC(=O)Nc1ccccc1F | – | – | – | – | – | – | – | 1.32
CCOC(=O)CC#N | 210 | -1.41 | -22.5 | readily biodegradable | – | – | – | –
S=C1NC(=S)C(c2ccccc2)(c2ccccc2)N1 | – | – | 263 | – | – | – | – | –
CCCCCCCCS | 199 | -0.372 | -49.2 | – | – | – | – | –
NS(=O)(=O)c1ccc(S(=O)(=O)CCCO)c([N+](=O)[O-])c1 | – | – | 169 | – | – | – | – | –
CCCCCCCCCCCC(=O)OCC | 271 | – | -10 | – | – | – | – | –

SMILES | boiling point [°C] | log10 vapour pressure (mmHg) | melting point [°C] | ready biodegradability | log10 Henry constant (atm·m³/mol) | log10 biodegradation half-life (days) | log10 Koa | log10 Koc (L/kg)
Cc1ccc2nccnc2c1 | 249 | – | 218 | – | – | – | – | –
Clc1ccc2c(c1)C(N1CCNCC1)=Nc1ccccc1O2 | – | – | 176 | – | – | – | – | –
Oc1ccc(I)cc1 | – | – | 93.5 | not readily biodegradable | – | – | – | –
CCC1c2ccccc2-c2ccccc21 | – | – | – | – | – | 1.46 | – | –
CCOC(=O)CCCCCCCC(=O)OCC | 292 | – | -18.5 | – | – | – | – | –
O=[N+]([O-])c1cccc(O)c1 | – | – | 96.8 | readily biodegradable | -8.7 | – | – | –
O=C(OC(=O)C(F)(F)F)C(F)(F)F | 39.5 | 1.61 | -65 | – | – | – | – | –
C1CCC(C(C2CCCCC2)C2CCCCC2)CC1 | 326 | – | 48 | – | – | – | – | –
FC(F)(F)C(F)(F)C(F)(F)C(F)(F)C(F)(F)C(F)(F)C(F)(F)C(F)(F)F | 106 | – | -42 | – | – | – | – | –
O=S(=O)(Cl)c1ccc(Br)cc1 | – | – | 76 | – | – | – | – | –
CC1(C)CC[C@]2(C(=O)O)[C@H](O)C[C@]3(C)C(=CC[C@@H]4[C@@]5(C)CC[C@H](O)[C@@](C)(C=O)[C@@H]5CC[C@]43C)[C@@H]2C1 | – | – | 294 | – | – | – | – | –
O=c1[nH]c2c(c(=O)n1C1CCCCC1)CCC2 | – | -8.82 | 316 | – | – | – | – | 2.14
CCC(=O)c1cc(O)ccc1O | – | – | 96.5 | – | – | – | – | –
c1ccc2cc3c4ccccc4c4ccccc4c3cc2c1 | 524 | -10 | 206 | – | – | – | – | –
FC(F)(Cl)C(F)(F)C(F)(F)C(F)(F)C(F)(F)C(F)(F)C(F)(F)C(F)(F)Cl | 151 | – | – | – | – | – | – | –
CCOC(=O)c1ccc(OC)cc1 | 270 | – | 7.5 | – | – | – | – | –
OC(CCCN1CCCCC1)(c1ccccc1)c1ccccc1 | – | – | 104 | – | – | – | – | –
FCCCCCCl | 143 | – | – | – | – | – | – | –
CC(C)COc1ccc2ccccc2c1 | – | – | 31 | not readily biodegradable | – | – | – | –
NS(=O)(=O)c1ccc(S(=O)(=O)CCO)cc1 | – | – | 165 | – | – | – | – | –
CCCCCC(=O)CCC | 188 | – | – | – | – | – | – | –
CC1=C(/C=C/C(C)=C/C=C/C(C)=C/C=C/C=C(C)/C=C/C=C(C)/C=C/C2=C(C)C[C@@H](O)CC2(C)C)C(C)(C)C[C@H](O)C1 | – | – | 216 | – | – | – | – | –
C=C(C)C | -6.9 | 3.36 | -140 | – | -0.662 | – | – | –
CCOC(=O)C(C)(C)C(=O)OCC | 197 | – | -30.4 | – | – | – | – | –
CC(Oc1ccc2ccccc2c1)C(O)=Nc1ccccc1 (stereo not drawn) | – | -10.7 | 128 | – | – | – | – | –
CCOC(=O)NCCOc1ccc(Oc2ccccc2)cc1 | – | -8.2 | 53.2 | – | – | – | – | 3
CC(C)(C)C(=O)NNCc1ccccc1 | – | – | 68.5 | – | – | – | – | –

same assay, conditions: fish

SMILES | log10 BCF | log10 biotransformation half-life (days)
CCOP(=O)(OCC)OCC | 0.11 | -1.09
O=[N+]([O-])c1ccc(Cl)c(Cl)c1 | 1.71 | -0.27
OC(c1ccc(Cl)cc1)(c1cncnc1)c1ccccc1Cl (stereo not drawn) | – | 0.57
CCC(C)CCCC(C)CCCC(C)C (stereo not drawn) | – | 1.36
O=[N+]([O-])c1cccc(O)c1 | 1.4 | -0.49
CC(C)COc1ccc2ccccc2c1 | 2.8 | 0.23
